Activity calls are given as the source filed them. No cut-off for these calls is given here.
What was measured:
Mus musculus [1] = experiment: Antinociceptive activity in mouse assessed as licking latency at 0.1 ug, icv after 15 mins by hot plate method; format: functional
Mus musculus [2] = experiment: Antinociceptive activity in mouse assessed as licking latency at 10 ug, icv after 30 mins by hot plate method; format: functional
Acetylcholinesterase = Acetylcholinesterase (Homo sapiens, UniProt P22303); experiment: Inhibition of human erythrocyte recombinant AchE after 20 mins
Acetylcholinesterase, sequence (P22303 whole entry): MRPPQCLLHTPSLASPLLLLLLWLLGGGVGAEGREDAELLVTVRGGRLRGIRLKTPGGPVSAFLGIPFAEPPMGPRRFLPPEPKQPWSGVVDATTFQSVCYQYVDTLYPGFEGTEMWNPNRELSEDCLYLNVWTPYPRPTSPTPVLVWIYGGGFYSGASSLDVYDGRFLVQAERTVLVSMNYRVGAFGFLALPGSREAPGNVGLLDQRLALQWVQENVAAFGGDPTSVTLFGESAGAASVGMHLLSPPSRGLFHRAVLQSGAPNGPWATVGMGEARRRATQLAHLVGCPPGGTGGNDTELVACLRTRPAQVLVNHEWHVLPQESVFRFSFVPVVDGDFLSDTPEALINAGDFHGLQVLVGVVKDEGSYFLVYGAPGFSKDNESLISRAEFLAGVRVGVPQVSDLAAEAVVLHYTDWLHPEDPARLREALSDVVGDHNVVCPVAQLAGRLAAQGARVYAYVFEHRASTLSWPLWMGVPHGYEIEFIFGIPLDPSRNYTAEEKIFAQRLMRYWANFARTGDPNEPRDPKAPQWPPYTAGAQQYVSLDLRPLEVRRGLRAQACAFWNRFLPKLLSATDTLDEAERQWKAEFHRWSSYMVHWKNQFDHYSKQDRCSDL

Mus musculus [3] = experiment: Antinociceptive activity in mouse assessed as licking latency at 10 ug, icv after 60 mins by hot plate method; format: functional
Mus musculus [4] = experiment: Antinociceptive activity in mouse assessed as licking latency at 10 ug, icv after 45 mins by hot plate method; format: functional
Mus musculus [5] = experiment: Antinociceptive activity in mouse assessed as licking latency at 0.03 ug, icv after 60 mins by hot plate method; format: functional
Mus musculus [6] = experiment: Antinociceptive activity in mouse assessed as licking latency at 0.03 ug, icv after 45 mins by hot plate method; format: functional
Mus musculus [7] = experiment: Antinociceptive activity in mouse assessed as licking latency at 0.1 ug, icv after 45 mins by hot plate method; format: functional
Mus musculus [8] = experiment: Antinociceptive activity in mouse assessed as licking latency at 0.03 ug, icv after 15 mins by hot plate method; format: functional
Rattus norvegicus = species on record: Rattus norvegicus; experiment: Increase in Ach release in rat parietal cortex by cerebral microdialysis test; format: functional
[9] = target: Muscarinic acetylcholine receptor M3 (Cavia porcellus) (UniProt Q8VH26); experiment: Antagonist potency at muscarinic receptor M3 in guinea pig ileum; format: functional, tissue-based
Muscarinic acetylcholine receptor M3 (Cavia porcellus), sequence (Q8VH26 1-587): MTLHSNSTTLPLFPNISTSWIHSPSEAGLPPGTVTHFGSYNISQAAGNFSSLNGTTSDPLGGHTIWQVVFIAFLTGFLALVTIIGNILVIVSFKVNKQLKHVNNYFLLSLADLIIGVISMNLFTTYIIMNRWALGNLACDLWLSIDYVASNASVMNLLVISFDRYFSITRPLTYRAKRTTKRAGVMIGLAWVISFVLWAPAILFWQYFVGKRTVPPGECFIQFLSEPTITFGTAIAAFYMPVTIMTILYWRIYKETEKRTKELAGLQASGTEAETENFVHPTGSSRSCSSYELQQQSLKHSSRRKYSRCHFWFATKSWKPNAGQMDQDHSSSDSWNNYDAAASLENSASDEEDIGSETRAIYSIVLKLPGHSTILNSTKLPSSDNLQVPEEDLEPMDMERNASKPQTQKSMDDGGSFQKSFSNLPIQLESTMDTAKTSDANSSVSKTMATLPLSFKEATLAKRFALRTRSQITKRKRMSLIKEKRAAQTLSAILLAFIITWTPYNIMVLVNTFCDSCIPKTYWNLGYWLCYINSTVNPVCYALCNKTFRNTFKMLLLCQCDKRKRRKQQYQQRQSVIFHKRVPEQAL

[10] = target: T1, Muscarinic acetylcholine receptor M5 (Homo sapiens, UniProt P08912); experiment: Displacement of [3H] N-methyl-scopolamine chloride from human muscarinic receptor M5 expressed in CHO cells; format: cell-based
T1 sequence (P08912 whole entry): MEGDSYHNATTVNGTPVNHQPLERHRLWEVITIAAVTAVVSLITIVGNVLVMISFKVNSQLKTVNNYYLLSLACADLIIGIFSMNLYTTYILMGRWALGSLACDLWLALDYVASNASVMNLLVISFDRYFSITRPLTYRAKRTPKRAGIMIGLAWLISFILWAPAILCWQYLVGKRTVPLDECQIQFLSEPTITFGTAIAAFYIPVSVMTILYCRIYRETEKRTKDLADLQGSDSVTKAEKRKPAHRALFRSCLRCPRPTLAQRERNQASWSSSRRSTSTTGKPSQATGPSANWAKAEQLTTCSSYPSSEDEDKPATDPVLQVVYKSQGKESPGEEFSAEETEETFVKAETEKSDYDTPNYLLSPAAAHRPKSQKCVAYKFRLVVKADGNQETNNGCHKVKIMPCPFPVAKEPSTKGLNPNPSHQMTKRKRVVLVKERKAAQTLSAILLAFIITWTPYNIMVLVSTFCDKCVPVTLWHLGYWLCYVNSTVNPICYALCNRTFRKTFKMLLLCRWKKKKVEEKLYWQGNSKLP

Mus musculus [11] = experiment: Antinociceptive activity in mouse assessed as licking latency at 0.3 ug, icv after 45 mins by hot plate method; format: functional
[12] = target: T2, Muscarinic acetylcholine receptor M1 (Homo sapiens, UniProt P11229); experiment: Displacement of [3H] N-methyl-scopolamine chloride from human muscarinic receptor M1 expressed in CHO cells; format: cell-based
T2 sequence (P11229 whole entry): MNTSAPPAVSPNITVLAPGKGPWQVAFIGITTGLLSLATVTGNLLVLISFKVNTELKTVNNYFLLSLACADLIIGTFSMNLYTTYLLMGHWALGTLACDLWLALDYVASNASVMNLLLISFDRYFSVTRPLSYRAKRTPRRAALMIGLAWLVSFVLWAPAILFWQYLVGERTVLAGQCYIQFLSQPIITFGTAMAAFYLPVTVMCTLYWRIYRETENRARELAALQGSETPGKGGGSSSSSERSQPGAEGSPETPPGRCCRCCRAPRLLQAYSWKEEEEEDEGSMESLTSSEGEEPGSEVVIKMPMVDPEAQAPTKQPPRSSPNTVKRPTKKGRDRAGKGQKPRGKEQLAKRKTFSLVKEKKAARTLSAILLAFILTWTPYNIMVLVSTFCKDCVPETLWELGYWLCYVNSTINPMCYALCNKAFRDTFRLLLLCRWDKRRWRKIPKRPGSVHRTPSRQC

Mus musculus [13] = experiment: Antinociceptive activity in mouse assessed as licking latency at 1.0 ug, icv after 15 mins by hot plate method; format: functional
Mus musculus [14] = experiment: Antinociceptive activity in mouse assessed as licking latency at 0.3 ug, icv after 15 mins by hot plate method; format: functional
[15] = target: T3, Muscarinic acetylcholine receptor M2 (Homo sapiens) (UniProt P08172); experiment: Antagonist potency at muscarinic receptor M2 in guinea pig atrium; format: functional, tissue-based; conditions: Cavia porcellus; Cardiac atrium; target entry is the homologue from another species
T3 sequence (whole entry): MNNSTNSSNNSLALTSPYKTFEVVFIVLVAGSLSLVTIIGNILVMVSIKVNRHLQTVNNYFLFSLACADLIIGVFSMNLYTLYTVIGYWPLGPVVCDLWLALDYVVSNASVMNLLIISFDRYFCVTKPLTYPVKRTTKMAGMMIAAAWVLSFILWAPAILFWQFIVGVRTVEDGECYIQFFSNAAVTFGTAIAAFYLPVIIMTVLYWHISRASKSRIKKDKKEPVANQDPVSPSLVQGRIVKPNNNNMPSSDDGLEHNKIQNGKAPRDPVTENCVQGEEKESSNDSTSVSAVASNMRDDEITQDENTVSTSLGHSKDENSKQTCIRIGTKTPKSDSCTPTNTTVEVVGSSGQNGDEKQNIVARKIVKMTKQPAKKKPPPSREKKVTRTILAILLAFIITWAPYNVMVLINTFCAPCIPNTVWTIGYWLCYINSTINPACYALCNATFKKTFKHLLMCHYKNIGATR

Mus musculus [16] = experiment: Antinociceptive activity in mouse assessed as licking latency at 0.03 ug, icv after 30 mins by hot plate method; format: functional
[17] = target: Muscarinic acetylcholine receptor M3 (Homo sapiens, UniProt P20309); experiment: Displacement of [3H] N-methyl-scopolamine chloride from human muscarinic receptor M3 expressed in CHO cells; format: cell-based
Muscarinic acetylcholine receptor M3, sequence (P20309 whole entry): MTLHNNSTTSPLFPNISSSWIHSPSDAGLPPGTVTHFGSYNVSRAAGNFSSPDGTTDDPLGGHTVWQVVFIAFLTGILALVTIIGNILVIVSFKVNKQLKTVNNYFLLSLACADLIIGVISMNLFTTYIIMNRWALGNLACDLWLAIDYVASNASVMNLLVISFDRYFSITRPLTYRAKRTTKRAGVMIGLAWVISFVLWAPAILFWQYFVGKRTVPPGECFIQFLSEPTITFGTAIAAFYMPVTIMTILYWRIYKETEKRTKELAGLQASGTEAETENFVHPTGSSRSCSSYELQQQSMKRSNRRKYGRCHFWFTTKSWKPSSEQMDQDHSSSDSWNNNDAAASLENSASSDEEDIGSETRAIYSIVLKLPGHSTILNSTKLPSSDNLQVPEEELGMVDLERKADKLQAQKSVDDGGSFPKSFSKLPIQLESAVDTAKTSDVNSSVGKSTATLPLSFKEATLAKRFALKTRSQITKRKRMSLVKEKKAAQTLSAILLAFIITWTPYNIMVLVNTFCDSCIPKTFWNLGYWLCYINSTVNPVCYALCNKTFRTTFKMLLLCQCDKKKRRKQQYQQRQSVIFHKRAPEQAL

Mus musculus [18] = experiment: Antinociceptive activity in mouse assessed as licking latency at 0.01 ug, icv after 60 mins by hot plate method; format: functional
Mus musculus [19] = experiment: Antinociceptive activity in mouse assessed as licking latency at 1.0 ug, icv after 45 mins by hot plate method; format: functional
Mus musculus [20] = experiment: Antinociceptive activity in mouse assessed as licking latency at 0.01 ug, icv after 30 mins by hot plate method; format: functional
Mus musculus [21] = experiment: Antinociceptive activity in mouse assessed as licking latency at 0.1 ug, icv after 30 mins by hot plate method; format: functional
Mus musculus [22] = experiment: Antinociceptive activity in mouse assessed as licking latency at 0.3 ug, icv after 60 mins by hot plate method; format: functional
Mus musculus [23] = experiment: Antinociceptive activity in mouse assessed as licking latency at 0.01 ug, icv after 45 mins by hot plate method; format: functional
Mus musculus [24] = experiment: Antinociceptive activity in mouse assessed as licking latency at 0.3 ug, icv after 30 mins by hot plate method; format: functional
Mus musculus [25] = experiment: Antinociceptive activity in mouse assessed as licking latency at 1.0 ug, icv after 30 mins by hot plate method; format: functional
Mus musculus [26] = experiment: Antinociceptive activity in mouse assessed as licking latency at 0.01 ug, icv after 15 mins by hot plate method; format: functional

SMILES: COc1ccccc1CNCCCCCCN1CCC(CCC2CCN(CCCCCCNCc3ccccc3OC)CC2)CC1
- Time (Mus musculus [1]): 24.7 s
- Time (Mus musculus [2]): 15.6 s
- IC50 (Acetylcholinesterase): 1290 nM
- Time (Mus musculus [3]): 18.3 s
- Time (Mus musculus [4]): 17.7 s
- Time (Mus musculus [5]): 16.1 s
- Time (Mus musculus [6]): 18.3 s
- Time (Mus musculus [7]): 22.1 s
- Time (Mus musculus [8]): 18.6 s
- Activity (Rattus norvegicus): Active
- pKb [9]: 6.58
- Ki [10]: 170 nM
- Time (Mus musculus [11]): 20.1 s
- Ki [12]: 20 nM
- Time (Mus musculus [13]): 19.3 s
- Time (Mus musculus [14]): 23.8 s
- pKb [15]: 7.98
- Time (Mus musculus [16]): 19.4 s
- Ki [17]: 214 nM
- Time (Mus musculus [18]): 14.2 s
- Time (Mus musculus [19]): 18.5 s
- Time (Mus musculus [20]): 17.1 s
- Time (Mus musculus [21]): 24.5 s
- Time (Mus musculus [22]): 15.7 s
- Time (Mus musculus [23]): 18.6 s
- Time (Mus musculus [24]): 25 s
- Time (Mus musculus [25]): 21.3 s
- Time (Mus musculus [26]): 15.9 s

From ChEMBL document CHEMBL1147166, “Structure-activity relationships of methoctramine-related polyamines as muscarinic antagonist: effect of replacing the inner polymethylene chain with cyclic moieties” (Bioorg Med Chem, 2007)
